Reference: ChEMBL document CHEMBL1201862, “PubChem BioAssay data set” (2004)
Structures can show the parent of a compound that is named as a salt.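 Each compound was tested at five concentrations against cells in 96-well plates for 48 hours. GI50: concentration for 50% inhibition of growth.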 Activity calls are given as the source filed them. Cut-off read from the data, not from the text of the source: active = GI50 up to about 1.1 µM and inactive = higher.

Key:
Experiment in all cases: NCI anticancer screen, dose series, 48 h
[1] = test system: SN12C
[2] = test system: A549
[3] = test system: HCT-116
[4] = test system: MCF7
[5] = test system: MDA-MB-231
[6] = test system: EKVX
[7] = test system: UACC-62
[8] = test system: SK-MEL-5
[9] = test system: SK-MEL-2
[10] = test system: OVCAR-5
[11] = test system: RPMI-8226
[12] = test system: SW-620
[13] = test system: SK-OV-3
[14] = test system: NCI/ADR-RES
[15] = test system: NCI-H522
[16] = test system: HCT-15
[17] = test system: HT-29
[18] = test system: RXF 393
[19] = test system: HOP-62
[20] = test system: MDA-MB-435
[21] = test system: OVCAR-3
[22] = test system: OVCAR-4
[23] = test system: UO-31
[24] = test system: SK-MEL-28
[25] = test system: SF-268
[26] = test system: NCI-H226
[27] = test system: A498
[28] = test system: U-251
[29] = test system: UACC-257
[30] = test system: Hs-578T
[31] = test system: SF-295
[32] = test system: IGROV-1
[33] = test system: 786-0
[34] = test system: DU-145
[35] = test system: HCC 2998
[36] = test system: M14
[37] = test system: ACHN
[38] = test system: SNB-19
[39] = test system: COLO 205
[40] = test system: CCRF-CEM
[41] = test system: MOLT-4
[42] = test system: CAKI-1
[43] = test system: Malme-3M
[44] = test system: NCI-H460
[45] = test system: SF-539
[46] = test system: HL-60
[47] = test system: TK-10
[48] = test system: HOP-92
[49] = test system: T47D
[50] = test system: NCI-H23
[51] = test system: KM12
[52] = test system: SR
[53] = test system: BT-549
[54] = test system: MDA-N
[55] = test system: OVCAR-8
[56] = test system: LOX IMVI
[57] = test system: K562
[58] = test system: SNB-75
[59] = test system: PC-3
[60] = test system: KM-20L2
[61] = test system: DMS-114

Measured: GI50

CC(C)(C)CC(C)(C)c1ccc(O)c(C[N+](C)(C)[O-])c1
> 100000 nM: [16]
inactive: [1] > 100000 nM | [2] > 100000 nM | [3] 98600 nM | [4] 80000 nM | [5] > 100000 nM | [6] > 100000 nM | [7] > 100000 nM | [8] 58900 nM | [9] > 100000 nM | [10] > 100000 nM | [11] 62200 nM | [12] > 100000 nM | [13] > 100000 nM | [14] > 100000 nM | [15] 53500 nM | [17] 73600 nM | [18] > 100000 nM | [19] > 100000 nM | [20] 79400 nM | [21] 58500 nM | [22] 63500 nM | [23] 60100 nM | [24] > 100000 nM | [25] 85500 nM | [26] > 100000 nM | [27] > 100000 nM | [28] > 100000 nM | [29] > 100000 nM | [30] 65600 nM | [31] > 100000 nM | [32] > 100000 nM | [33] > 100000 nM | [34] > 100000 nM | [35] 31900 nM | [36] > 100000 nM | [37] > 100000 nM | [38] > 100000 nM | [39] 60300 nM | [40] 41800 nM | [41] 53600 nM | [42] > 100000 nM | [43] > 100000 nM | [44] > 100000 nM | [45] > 100000 nM | [46] 33300 nM | [47] > 100000 nM | [48] 77400 nM | [49] 68200 nM | [50] > 100000 nM | [51] > 100000 nM | [52] 64900 nM | [53] > 100000 nM | [54] > 100000 nM | [55] > 100000 nM | [56] > 100000 nM | [57] 74800 nM | [58] 91200 nM | [59] 85700 nM

O=C1c2ccccc2C(=O)c2oc(Br)cc21
inactive: [3] 1360 nM | [5] 2650 nM | [6] 1940 nM | [10] 1670 nM | [11] 1750 nM | [13] 2140 nM | [14] 2220 nM | [15] 1550 nM | [17] 1600 nM | [18] 1490 nM | [19] 1690 nM | [22] 1870 nM | [23] 1470 nM | [25] 1870 nM | [26] 1410 nM | [27] 1940 nM | [28] 1260 nM | [32] 1240 nM | [33] 1570 nM | [35] 1820 nM | [37] 1780 nM | [38] 1500 nM | [39] 1920 nM | [40] 1950 nM | [41] 1800 nM | [42] 1760 nM | [47] 2900 nM | [48] 2020 nM | [49] 1730 nM | [51] 1230 nM | [53] 1160 nM | [55] 1380 nM | [57] 2120 nM | [59] 2260 nM
566 nM: [16]
active: [1] 953 nM | [2] 344 nM | [4] 460 nM | [7] 544 nM | [8] 144 nM | [9] 578 nM | [12] 340 nM | [20] 159 nM | [21] 1020 nM | [24] 340 nM | [29] 266 nM | [30] 327 nM | [31] 269 nM | [34] 214 nM | [36] 161 nM | [43] 127 nM | [44] 845 nM | [45] 684 nM | [46] 378 nM | [50] 244 nM | [52] 1090 nM | [54] 132 nM | [56] 429 nM | [58] 256 nM

OC(c1cc(C23CC4CC(CC(C4)C2)C3)nc2c(Cl)cc(Cl)cc12)C1CCCCN1 (configuration not stated)
1830 nM: [16]
active: [23] 204 nM | [35] 344 nM | [40] 743 nM | [41] 608 nM | [52] 705 nM
inactive: [1] 1620 nM | [2] 1820 nM | [3] 1360 nM | [4] 1600 nM | [5] 1820 nM | [6] 1730 nM | [7] 1760 nM | [8] 2630 nM | [9] 1870 nM | [10] 1790 nM | [11] 1770 nM | [12] 1570 nM | [13] 1770 nM | [14] 2060 nM | [15] 1570 nM | [17] 1580 nM | [18] 1600 nM | [19] 1530 nM | [20] 1670 nM | [21] 1780 nM | [22] 1690 nM | [24] 2060 nM | [25] 1790 nM | [26] 2070 nM | [27] 1700 nM | [28] 1510 nM | [29] 1970 nM | [30] 2030 nM | [31] 1670 nM | [32] 1770 nM | [33] 1570 nM | [34] 1770 nM | [36] 1800 nM | [37] 1690 nM | [38] 1600 nM | [39] 1710 nM | [42] 1690 nM | [43] 1810 nM | [44] 1610 nM | [45] 2130 nM | [46] 2110 nM | [47] 1840 nM | [48] 2050 nM | [49] 1790 nM | [50] 1850 nM | [51] 1670 nM | [53] 2020 nM | [54] 1680 nM | [55] 2360 nM | [56] 1490 nM | [57] 1510 nM | [58] 1730 nM | [59] 1620 nM

Cc1ccc(NC(c2ccccc2)c2ccc3cccnc3c2O)cc1 (configuration not stated)
active: [40] 787 nM
2640 nM: [16]
inactive: [1] 4630 nM | [2] 5560 nM | [3] 3230 nM | [4] 3140 nM | [5] 4550 nM | [6] 3470 nM | [7] 3840 nM | [8] 3970 nM | [9] 7500 nM | [10] 7110 nM | [11] 2610 nM | [12] 6340 nM | [13] 7910 nM | [14] 2790 nM | [15] 2170 nM | [17] 2900 nM | [18] 4400 nM | [19] 4970 nM | [20] 5870 nM | [21] 2590 nM | [22] 3850 nM | [23] 3330 nM | [24] 9290 nM | [25] 2240 nM | [26] 2700 nM | [27] 12200 nM | [28] 2820 nM | [29] 9790 nM | [30] 9020 nM | [31] 3720 nM | [32] 4090 nM | [33] 3610 nM | [34] 11100 nM | [35] 16400 nM | [36] 4690 nM | [37] 3670 nM | [38] 6370 nM | [39] 4680 nM | [41] 2370 nM | [42] 5110 nM | [43] 3050 nM | [44] 2580 nM | [45] 2330 nM | [46] 2040 nM | [47] 5220 nM | [48] 3480 nM | [49] 7230 nM | [50] 5790 nM | [51] 5020 nM | [52] 2440 nM | [53] 4330 nM | [54] 4100 nM | [55] 2640 nM | [56] 3600 nM | [57] 3020 nM | [58] 6370 nM | [59] 3660 nM

COc1ccc2c(=O)c(C)c(-c3ccccc3)oc2c1CN(C)C [DIMEFLINE HYDROCHLORIDE]
inactive: [1] > 100000 nM | [6] > 100000 nM | [8] 55000 nM | [10] 47100 nM | [12] > 100000 nM | [18] 76000 nM | [21] > 100000 nM | [23] 85700 nM | [24] > 100000 nM | [25] > 100000 nM | [27] 56400 nM | [28] > 100000 nM | [29] > 100000 nM | [60] 58200 nM | [44] 82800 nM | [47] 99800 nM | [61] > 100000 nM | [52] 84500 nM | [56] 69300 nM | [57] 57100 nM
> 100000 nM: [16]
